Laboratory results taken from patent US6338963B1, “Use of carbon monoxide dependent guanylyl cyclase modifiers to stimulate neuritogenesis” (NeoTherapeutics, Inc., priority 1994, dated 2002).

Legend:
[1] = system: S100β; test: Summary of effects on growth factor mRNA and protein (Table R): S100β; set-up: key: ± = mRNA; + = protein; nt = not tested; details: Cultured Cells
Description: (§1) The constellation of effects of AIT-082 on production of mRNA encoding growth factors and on production of growth factor proteins is shown in Table R. The results summarized in […] show both transcriptional and translational effects on growth factors that are in the categories of neurotrophins, pleiotrophins, members of the S100 family of EF hand calcium binding proteins, and members of the TGFβ superfamily. As indicated, effects have been shown at both the mRNA (transcriptional) and protein (translational) levels.

[2] = system: mice; test: Elevated Plus maze (anxiety); format: in vivo
Description: A Plus maze was constructed of black plexiglass consisting of two opposite-facing open arms (30×5 cm, L×W) and two opposite facing closed arms (30×5×15 cm, L×W×H). The walls of the closed arms were clear plexiglass and the four arms were connected by a central area 5×5 cm. The entire Plus maze was mounted on a base 38 cm above the floor. Testing consisted of placing the subject at one end of one of the open arms. The time the subject took to leave the start position (the first 10 cm of the open arm) was recorded. The time it took for the subject to enter halfway into one of the closed arms was also recorded. When the subject arrived at the half-way point in the closed arm, the three-minute test session began. During the three-minute test session, the number of times the subject entered the open arms was recorded. An entry was defined as placing at least two paws onto the platform of the open arm.

[3] = system: BDNF; test: Summary of effects on growth factor mRNA and protein (Table R): BDNF; set-up: key: ± = mRNA; + = protein; nt = not tested
Description: as §1

[4] = system: BDNF mRNA; test: RT-PCR of growth factor mRNA after T8 spinal cord hemisection: BDNF; format: in vivo, Wistar rats
[5] = system: S100β protein; test: Western blot of astrocyte cytosolic proteins: S100β; format: cell-based, rat; details: 100 μM AIT-082
[6] = system: rat striatum; test: MRI of rat striatum injected with NMDA; format: in vivo
Protocol: T-2 weighted MRI photos of transverse brain 3-mm thick slices were performed (TR/TE=7400/115 ms; matrix 483×1024; FLV 250). Magnetic resonance images were acquired using 1.5 T scanner (Vision, Siemens-Erlangen). […] All animals survived the surgery and continued to receive treatment for an additional three days, at which time they were sacrificed and tissues were collected as described above.

[7] = system: Swiss Webster mice; test: T-maze discrimination learning and reversal; format: in vivo
Description: Subjects were also trained in the same T-maze used for the win-shift model discussed above. As in the win-shift method, subjects were shaped and then given a single reference run in which reward was available in both goal boxes. The subject was only allowed to consume the milk reward in the goal box selected. On the next run, the reward and thus the correct response was in the same goal box selected for the reference run and was not alternated. The subject was required to learn that there was no shift in the goal box for the correct response. The subjects were given 10 trials per day and continued until the subject had at least 8 out of 10 correct responses on two consecutive days. The number of days to reach this criteria of performance was recorded. After the subject reached criteria, the goal box for the correct response was reversed. The number of days taken to reach criteria on reversal was recorded.

[8] = system: basal forebrain cholinergic neurons; test: Fimbria-fornix transection, ChAT-positive medial septum neurons; format: in vivo, F344 rats; details: AIT-082 30 mg/kg IP every three days, 14 days post-lesion
Protocol: This model is the gold standard for examining the effects of neurotrophic factors, neurotrophic factor-releasing agents, and neurotrophic factor analogues in the central nervous system (CNS). Fimbria-fornix transections (FFT) are performed to induce the degeneration of basal forebrain cholinergic (BFC) neurons. […] The infusion of nerve growth factor completely prevents the degeneration of these neurons. In this experiment, animals received AIT-082 to determine whether it would prevent lesion-induced degeneration of BFC neurons.
Adult female F344 rats received an intraperitoneal (IP) injection of AIT-082 (30 mg/kg) or saline one hour prior to receiving a unilateral fimbria-fornix transection (FFT) (n=6 per group). All animals survived the surgery and continued to receive IP injections of AIT-082 or vehicle every three days following the lesion. All animals were perfused with fixative at 14 days post-lesion and brains were sectioned and processed for choline acetyltransferase (ChAT) and p75 immunoreactivity. For analysis, three sections, 240 μm apart, were taken at the level of the medial septum and ChAT positive cells were counted both ipsilateral and contralateral to the lesion.
For the results of FIG. 44, ChAT-positive cells were counted in three sections, 240 μm apart. Data was expressed as a ratio of cell counts ipsilateral to the lesion divided by counts contralateral to the lesion. […]

[9] = system: C57BL/6 mice; test: Win-shift duration of memory trace, C57BL/6 mice; format: in vivo; details: for Correct (Mean score ± S.E.) / No. above chance/Total #: AIT-082 30 mg/kg
Protocol: To determine the duration of the memory trace, subjects were administered drug or saline and 30 minutes (PHY) or 1 hour (AIT-082 or THA) later they were given a single reference run with the milk reward in both goal boxes. After the indicated inter-trial delay, subjects were returned to the start box and given the first test trial with the milk reward only in the goal box opposite to the one entered on the previous correct trial. The subjects were given 10 trials with the reward alternating only after correct responses.
Previous work has established that normal adult Swiss Webster mice have a memory trace duration of 60 seconds in the win-shift paradigm which may be increased by the administration of AIT-082.

[10] = system: rats; details: oral or intraperitoneal route, preliminary

For `O=C(CCn1cnc2c(=O)[nH]cnc21)Nc1ccc(C(=O)O)cc1` [AIT-082, N-4-carboxyphenyl-3-(6-oxohydropurin-9-yl)propanamide], the “S100β, effect on mRNA/protein production” value [1] was “+”, the “anxiogenic effect in Plus maze” value ([2]; 0.005 to 0.5 mg/kg) was “not observed” and the “anxiogenic effect in Plus maze” value ([2]; 30 mg/kg) was “slight anxiogenic effect”. For the same compound, the “anxiogenic effect in Plus maze” value ([2]; 60 mg/kg) was “not observed”, the “BDNF, effect on mRNA/protein production” value ([3]; Aged Brain) was “+” and the “BDNF, effect on mRNA/protein production” value ([3]; Lesioned Spinal Cord) was “±”. For the same compound, the “BDNF, effect on mRNA/protein production” value ([3]; Normal Brain) was “+”, the “BDNF, effect on mRNA/protein production” value ([3]; Normal Spinal Cord) was “+” and the “BDNF mRNA level” value ([4]; at the level of the lesion) was “no significant differences”. The “BDNF mRNA level” value ([4]; caudal to lesion, 7 days) was “no significant effects”, the “BDNF mRNA level” value ([4]; rostral to lesion, 3 days, 20 mg/kg day in drinking water, sham-operated over lesion animals) was “significantly increased” and the “BDNF mRNA level” value ([4]; rostral to lesion, 7 days, lesioned treated vs lesioned not treated) was “significantly higher”. For the same compound, the “ex novo synthesis of S100β protein” value [5] was “did not stimulate ex novo synthesis of S100β protein”, the “MRI brightness of the lesion” value ([6]; AIT locally co-injected with NMDA) was “disappeared” and the “MRI brightness of the lesion” value ([6]; systemic (intraperitoneal) AIT-082 60 mg/kg) was “significantly reduced”. For the same compound, the “T-maze Learning, Learning” value ([7]; AIT-082 0.5 mg/kg) was 3.0 days to reach criteria, the “T-maze Learning, Reversal” value ([7]; AIT-082 0.5 mg/kg) was 3.78 days to reach criteria and the “T-maze Learning, Learning” value ([7]; AIT-082 30.0 mg/kg) was 3.3 days to reach criteria. For the same compound, the “T-maze Learning, Reversal” value ([7]; AIT-082 30.0 mg/kg) was 3.5 days to reach criteria, the “lesion-induced loss of ChAT-labeled cells in the BFC region” value [8] was “did not reduce lesion-induced loss of ChAT-labeled cells” and the “duration of the memory trace” value ([9]; AIT-082 30 mg/kg i.p., untreated 120 seconds) was “over 210 seconds”. The “Correct (Mean score ± S.E.)” value ([9]; inter-trial interval 180 sec) was 70 ± 15, the “No. above chance/Total #” value ([9]; inter-trial interval 180 sec) was 4/6 and the “Correct (Mean score ± S.E.)” value ([9]; inter-trial interval 210 sec) was 78 ± 15. For the same compound, the “No. above chance/Total #” value ([9]; inter-trial interval 210 sec) was 4/6, the “Correct (Mean score ± S.E.)” value ([9]; inter-trial interval 240 sec) was 50 ± 6 and the “No. above chance/Total #” value ([9]; inter-trial interval 240 sec) was 0/6. For the same compound, the “Correct (Mean score ± S.E.)” value ([9]; inter-trial interval 270 sec) was 50 ± 6, the “No. above chance/Total #” value ([9]; inter-trial interval 270 sec) was 0/6 and the LD50 [10] was greater than 3000 mg/kg.
